In patent US11116722B2, “Antifungal dry powders” (priority 2016, dated 2021):

Tested on: Calu-3 cell line
Description: A bio-relevant dissolution testing system was used based on mimicking the air-liquid interface at the respiratory epithelium interface using a cell-based in vitro method. A modified next generation impactor that incorporated cell culture plates onto collection stages (cNGI) was used to uniformly deposit materials onto the cell cultures. Dissolution and permeation of the drug through the epithelial cell monolayer was measured.
Epithelial cell monolayers grown at the air-liquid interface in Snapwell™ (Corning Costar, Mass., USA) permeable insert were integrated into the cNGI. […] The transepithelial electrical resistance (TEER) was measured using an EVOM2 chopstick electrode connected to an EVOM2 Epithelial Voltohmmeter (World Precision Instruments, Hitchin, United Kingdom) and monolayers with a TEER above 450Ω.cm^2 were deemed confluent. […]
Post-dosing of the dose on to the Snapwells from stage 4, the Snapwells were transferred to 6-well plates, which contained 2 mL of PBS pH 7.4+2.0% SDS maintained at 37° C. Basolateral samples were taken at different time points and drug content was measured on an Agilent (Santa Clara, Calif., USA) 1260 Infinity series HPLC. Total dose delivered to the cells was measured from the total amount of drug dissolved over the time-course and from lysing cells post experimentation. […]

In the case of `CCC(C)n1ncn(-c2ccc(N3CCN(c4ccc(OCC5COC(Cn6cncn6)(c6ccc(Cl)cc6Cl)O5)cc4)CC3)cc2)c1=O` (centres unmarked) [Pure ITZ, Itraconazole], the “dissolution and permeability kinetics / rate of diffusion (in words)” value is reported as “slower dissolution and permeability kinetics than the other formulations” and the “Rate of Diffusion” value (human, pH 7.4) is reported as 1.81 cm/s.
